Test results published in patent US20240408071A1, “NOVEL COMBINATION OF SEROTONIN RECEPTOR (5-HTR2B) ANTAGONIST AND AN IMMUNOMODULATOR AND CHEMOTHERAPEUTIC DRUGS FOR INHIBITION OF CANCER” (NATIONAL CENTRE FOR CELL SCIENCE, priority 2021, published 2024).

Key:
[1] = tested on: tumor-infiltrating immune cells in MC38 tumor; assay: Tumor-infiltrating immune cells in MC38 tumor (flow cytometry / immunohistochemistry); assay type: in vivo, C57BL/6 mice
Method: FIG. 7 depicts that antagonizing the 5-HTR2B in mice inhibits breast and colon tumor growth: (A) MC38 colon cancer cells were injected subcutaneously into the right flank of C57BL/6 mice. […] Tumor volumes were measured and plotted. (B) MC38 colon cancer cells were injected subcutaneously into the right flank of C57BL/6 mice. After seven days when tumors became palpable, one group was treated with 5-HTR7 antagonist SB-269970 (n=6 mice; 3 mg/kg/day) or left untreated (n=6 mice). Tumor volume was measured and plotted. (C) After seven days of the setting of tumor growth, one group was treated with a serotonin transporter blocker (SSRI) sertraline hydrochloride (n=6 mice; 15 mg/kg/week) or left untreated (n=6 mice). Tumor volume was measured and plotted. (D) C57BL/6 mice were given subcutaneously injected MC38 cells. After seven days of tumor growth, one group of mice was treated with different doses of 5-HTR2B antagonist SB-215505 (n=6). Tumor volume was measured and plotted. (E) C57BL/6 mice were given subcutaneously injected MC38 cells. After seven days of the tumor growth, one group of mice was treated with different doses of 5-HTR2B antagonist SB-215505 (n=6), one group treated with 5-HTR2B agonist BW-723C86 (n=6; 4 mg/kg/day). Tumor volume was measured and plotted. (F) MC38 cells were subcutaneously injected into C57BL/6 mice. After seven days when the tumor became palpable in mice, one group of mice was treated with FDA-approved 5-HTR2B antagonist cariprazine (Carispec; Sun pharma) via oral gavage (n=5 mice; dose 5 mg/kg body weight/day) or left untreated (n=5 mice). Tumor growth was measured and plotted. (G) Breast cancer cell lines (4T1-Luc cells) were injected into the mammary fatpad of BALB/c mice. After seven days of the tumor growth setting in mice, one group of mice was treated with 5-HTR2B antagonist SB-215505(n=5 mice) or left untreated (n=5 mice). Tumour volumes were measured and plotted. (H) Mice melanoma (B16F10 cells) were injected subcutaneously in the left flank of C57BL/6J mice. After seven days of the tumor growth setting in mice, one group of mice was treated with 5-HTR2B antagonist SB-215505(n=5 mice) or left untreated (n=5 mice). Tumour volumes were measured and plotted. (I) Statistical analysis of the flow cytometric data showing the differential expression of F4/80^+CD11B^+ macrophages within MC38 tumor following treatment with 5-HTR2B antagonist. (J) Statistical analysis of the flow cytometric data showing the differential expression of F4/80^+CD11B^+ iNOS^+ M1 macrophages within MC38 tumor following treatment 5-HTR2B antagonist. (K) Statistical analysis of the flow cytometric data showing the differential expression of F4/80^+CD1B^+ Arg1^+ M2 macrophages within MC38 tumor following treatment with 5-HTR2B antagonist. (L) Immuno-Histochemistry data of MC38 tumor tissue from control and 5-HTR2B antagonist treated mice showing expression of F4/80 (cyan), iNOS (blue), arginase 1 (green), and CD11c (red). Images are taken in […] and inset images are acquired in 600× magnification and DAPI (blue) is used as counterstain. All the images in the panel were taken at 200× magnification. The image in the inset was taken in 600× magnification. All the statistical analysis was performed using Student's ‘t’ test or two-way ANOVA using Sidak's multiple comparison test. *P<0.05; **P<0.01; […]; ****P<0.0001 Error bar represents mean±standard error of means (SEM).
FIG. 9 depicts the effect of5-HTR antagonists on the CTL response MC38 tumor model in mice: (A) Clinical data correlation study. A TIDE computational method was used to study the association between the tumor-infiltrating CD8 T cells (also known as cytotoxic T lymphocytes, CTL) level and overall subject survival in relation to the intratumoral 5-HTR2B gene expression level. […]

[2] = compared with other 5-HTR2B antagonists; cited from earlier work
[3] = tested on: 4T1-Luc2 cells; assay: 4T1-Luc2 breast cancer model, tumor volume; assay type: in vivo, BALB/c mice; conditions: RS-127445 2 mg/kg/day + paclitaxel 2 mg/kg/alternate days; 4T1-luc2 model (FIG. 16A)
Method: FIG. 7 depicts that antagonizing the 5-HTR2B in mice inhibits breast and colon tumor growth: (A) MC38 colon cancer cells were injected subcutaneously into the right flank of C57BL/6 mice. […] Tumor volumes were measured and plotted. (B) MC38 colon cancer cells were injected subcutaneously into the right flank of C57BL/6 mice. After seven days when tumors became palpable, one group was treated with 5-HTR7 antagonist SB-269970 (n=6 mice; 3 mg/kg/day) or left untreated (n=6 mice). Tumor volume was measured and plotted. (C) After seven days of the setting of tumor growth, one group was treated with a serotonin transporter blocker (SSRI) sertraline hydrochloride (n=6 mice; 15 mg/kg/week) or left untreated (n=6 mice). Tumor volume was measured and plotted. (D) C57BL/6 mice were given subcutaneously injected MC38 cells. After seven days of tumor growth, one group of mice was treated with different doses of 5-HTR2B antagonist SB-215505 (n=6). Tumor volume was measured and plotted. […] Tumor volume was measured and plotted. […] Tumor growth was measured and plotted. […] Tumour volumes were measured and plotted. […] Tumour volumes were measured and plotted. […]
FIG. 16 depicts the effect of the 5-HTR2B antagonist on the FDA-approved chemotherapy drug treatment: (A) BALB/C mice were inoculated with 4T1-Luc2 cells in the mammary fat pad. […] Tumor volume was measured and plotted. […]

[4] = day 24, compared to control and SB-215505 treated tumor (FIG. 14)

CC(C)c1cc(-c2ccc(F)c3ccccc23)nc(N)n1 [RS-127445]
total CD11c+ DCs in the TME [1]: reducing the total CD11c^+ DCs | percentage of PD-L1+ CD11c+ DCs in the tumor [1, 4]: much reduced percentage | percentage of PD-L1+ arginase1+ M2 macrophages in the tumor [1, 4]: much reduced percentage | percentage of PD-L1+ total macrophages in the tumor [1, 4]: much reduced percentage | percentage of PD-L1+iNOS+ M1 macrophages in the tumor [1, 4]: much reduced percentage | percentage of total CD11b+Gr1+ MDSCs in the tumor [1, 4]: much reduced percentage | bioavailability [2]: higher bioavailability | tumor growth, combination with paclitaxel [3]: much better response by reducing tumor growth than any of them alone
